Assay results published in US5114961A, “2,5-diaryl tetrahydrofurans and analogs thereof as PAF antagonists” (Merck & Co., Inc., priority 1990, dated 1992).
“And” between values parts separate entries of the source, which are not always exact repeats. Identical values can stand only once.

Biological target: T1, PAF specific receptor binding site (human platelet membranes) (Homo sapiens, UniProt P25105)
T1 construct: platelet membranes at a drug concentration of 3 nM; from tissue; host or cells: human platelet plasma membranes
Assay: Inhibition of [3H]N-methylcarbamoyl-PAF binding to human platelet membranes
Conditions: drug concentration of 3 nM, trans configuration
Procedure: The ability of a compound of formula (I) to inhibit the PAF binding to its specific receptor binding site on rabbit or human platelet or PMN plasma membranes was measured by a recently developed assay.
The inhibition of ^3 [H]-PAF or ^3 [H]-N-methyl carbamoyl-TAF binding to the human or rabbit platelet or PMN plasma membrane by a PAF antagonist of formula (I) was determined by a method employing isotopic labeling and filtration techniques. Generally, a series of Tris-buffered solutions of the selected antagonist at predetermined concentrations were prepared. Each of these solutions contains 1 pmole of ^3 H-PAF, a known amount of the test antagonist, and a sufficient amount of the pH 7.5 Tris-buffer solution (10mM Tris, 0.25% bovine serum albumin, and 150 mM NaCl per ml water) to make the final volume of 1 ml. After adding into a set of test tubes each with 100 μg of the platelet plasma membrane suspension (S. B. Hwang, et. al., Biochemistry, Vol. 22 pp. 4756-4763, 1983) and one of the Tris-buffer solutions described above, the resulting mixture in each test tube was incubated at 0° C. for about one hours or until the reaction was complete. Two control samples, one of which (C1) contains all the ingredients described above except the antagonist and the other (C2) contains C1 plus a 100-fold excess of unlabeled PAF, were also prepared and incubated simultaneously with the test samples. After the incubation was completed, the contents of each test tube were filtered under vacuo through a Whatman GF/C fiberglass filter and the residue washed rapidly several times with a total of 20 ml cold (0°-5° C.) Tris-buffer solution. Each washed residue was then suspended in 10 ml scintillation solution (Aquasol 2, New England Nuclear, Conn.) and the radioactivity was counted in a Packard Tri-Carb 460CD Liquid Scintillation System. Defining the counts from a test sample as "Total binding with antagonist"; the counts from the control sample C1, as "Total binding C1 "; and the counts from the control sample C2 as "non-specific binding C2 ", the percent inhibition of each test antagonist can be determined by the following equations: [formula]

T1 sequence (P25105 whole entry): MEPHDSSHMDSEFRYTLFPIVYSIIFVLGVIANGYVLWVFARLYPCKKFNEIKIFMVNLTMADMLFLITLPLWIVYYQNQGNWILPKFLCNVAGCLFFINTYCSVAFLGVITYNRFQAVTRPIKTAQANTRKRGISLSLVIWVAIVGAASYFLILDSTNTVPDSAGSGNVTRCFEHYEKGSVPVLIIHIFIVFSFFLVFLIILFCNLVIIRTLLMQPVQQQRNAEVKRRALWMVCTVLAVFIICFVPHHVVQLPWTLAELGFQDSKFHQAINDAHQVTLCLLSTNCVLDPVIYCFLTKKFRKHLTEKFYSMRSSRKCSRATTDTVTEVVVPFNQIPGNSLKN

| SMILES | inhibition at 0.003 µM |
| --- | --- |
| CCCOc1c(OCCN2CCNCC2)cc([C@@H]2CC[C@@H](c3cc(OC)c(OC)c(OC)c3)O2)cc1S(=O)(=O)CC(C)=O (relative stereo) | 34% |
| CCCOc1c(OCCSc2ncc[nH]2)cc([C@H]2CC[C@H](c3cc(OC)c(OC)c(OC)c3)O2)cc1S(=O)(=O)CC(C)O (relative stereo) [trans-2-[3-(2-Hydroxy-n-propylsulfonyl)-4-n-propoxy-5-{2-(2-imidazolylthio)ethoxy}phenyl]-5-(3,4,5-trimethoxyphenyl)tetrahydrofuran] | 34% |
| CCCOc1c(OCCCn2ccnc2)cc([C@H]2CC[C@H](c3cc(OC)c(OC)c(OC)c3)O2)cc1S(=O)(=O)CC(C)O (relative stereo) [trans-2-[3-(2-Hydroxy-n-propylsulfonyl)-4-n-propoxy-5-{3-(1-imidazolyl)propoxy}phenyl]-5-(3,4,5-trimethoxyphenyl)tetrahydrofuran] | 41% |
| CCCOc1c(OCCCSc2nc[nH]n2)cc([C@@H]2CC[C@@H](c3cc(OC)c(OC)c(OC)c3)O2)cc1S(=O)(=O)CC(C)O (relative stereo) [trans-2-[3-(2-Hydroxy-n-propylsulfonyl)-4-n-propoxy-5-{3-(1H-1,2,4-triazolyl-3-thio)propoxy}phenyl]-5-(3,4,5-trimethoxyphenyl)tetrahydrofuran] | 61% |
| CCCOc1c(OCCCSc2ncc[nH]2)cc([C@H]2CC[C@H](c3cc(OC)c(OC)c(OC)c3)O2)cc1S(=O)(=O)CC(C)O (relative stereo) [trans-2-[3-(2-Hydroxy-n-propylsulfonyl)-4-n-propoxy-5-{3-(2-imidazolylthio)n-propoxy}phenyl]-5-(3,4,5-trimethoxyphenyl)tetrahydrofuran] | 46% |
| CCCOc1c(OCCCCn2ccnc2)cc([C@H]2CC[C@H](c3cc(OC)c(OC)c(OC)c3)O2)cc1S(=O)(=O)CC(C)O (relative stereo) [trans-2-[3-(2-Hydroxy-n-propylsulfonyl)-4-n-propoxy-5-{4-(1-imidazolyl)butoxy}phenyl]-5-(3,4,5-trimethoxyphenyl)tetrahydrofuran] | 43% |
| CCCOc1c(OCCn2ccnc2)cc([C@@H]2CC[C@@H](c3cc(OC)c(OC)c(OC)c3)O2)cc1S(=O)(=O)CC(C)O (relative stereo) [trans-2-[3-(2-Hydroxy-n-propylsulfonyl-4-n-propoxy-5-{2-(1-imidazolyl)ethoxy}phenyl]-5-(3,4,5-trimethoxyphenyl)tetrahydrofuran] | 48% |
| CCCOc1c(OCCN2CCOCC2)cc([C@@H]2CC[C@@H](c3cc(OC)c(OC)c(OC)c3)O2)cc1S(=O)(=O)CC(C)O (relative stereo) [trans-2-[3-(2-Hydroxypropylsulfonyl)-4-n-propoxy-5-{2-(1-morpholino)-n-ethoxy}phenyl]-5-(3,4,5-trimethoxyphenyl)tetrahydrofuran] | 20% |
| CCCOc1cc([C@@H]2CC[C@@H](c3cc(OC)c(OC)c(OC)c3)O2)cc(S(=O)(=O)CCN2CCOCC2)c1OCCC (relative stereo) [trans-2-[3-(2-N-Morpholinoethylsulfonyl)-4,5-di-n-propoxyphenyl]-5-(3,4,5-trimethoxyphenyl)tetrahydrofuran] | 17% |
| CCCOc1cc([C@@H]2CC[C@@H](c3cc(OC)c(OC)c(OC)c3)O2)cc(S(=O)(=O)CCN2CCCC2)c1OCCC (relative stereo) [trans-2-[3-(2-N-Pyrrolidinylethylsulfonyl)-4,5-dipropoxyphenyl]-5-(3,4,5-trimethoxyphenyl) tetrahydrofuran] | 18% |
| CCCOc1c(OCCN2CCOCC2)cc([C@@H]2CC[C@@H](c3cc(OC)c(OC)c(OC)c3)O2)cc1S(=O)(=O)CC(C)=O (relative stereo) [trans-2-[3-(2-Oxopropylsulfonyl)-4-n-propoxy-5-{2-(1-morpholino)-ethoxy}phenyl]-5-(3,4,5-trimethoxyphenyl)tetrahydrofuran] | 25% |
| CCCOc1c(OCCN2CCCCC2)cc([C@H]2CC[C@H](c3cc(OC)c(OC)c(OC)c3)O2)cc1S(=O)(=O)CC(C)=O (relative stereo) [trans-2-[3-(2-Oxopropylsulfonyl)-4-n-propoxy-5-{2-(1-piperidinyl)-ethoxy}phenyl]-5-(3,4,5-trimethoxyphenyl)tetrahydrofuran] | 34% |
| CCCOc1c(OCCN2CCCC2)cc([C@@H]2CC[C@@H](c3cc(OC)c(OC)c(OC)c3)O2)cc1S(=O)(=O)CC(C)=O (relative stereo) [trans-2-[3-(2-Oxopropylsulfonyl)-4-n-propoxy-5-{2-(1-pyrrolidino)-ethoxy}phenyl]-5-(3,4,5-trimethoxyphenyl)tetrahydrofuran] | 29% |
| CCCOc1c(OCCSc2ncc[nH]2)cc([C@H]2CC[C@H](c3cc(OC)c(OC)c(OC)c3)O2)cc1S(=O)(=O)CC(C)=O (relative stereo) [trans-2-[3-(2-Oxopropylsulfonyl)-4-n-propoxy-5-{2-(2-imidazolylthio)ethoxy}phenyl]-5-(3,4,5-trimethoxyphenyl)tetrahydrofuran] | 55% |
| CCCOc1c(OCCCN2CCCC2)cc([C@@H]2CC[C@@H](c3cc(OC)c(OC)c(OC)c3)O2)cc1S(=O)(=O)CC(C)=O (relative stereo) [trans-2-[3-(2-Oxopropylsulfonyl)-4-n-propoxy-5-{3-(1-pyrrolidino)-n-propoxy}phenyl]-5-(3,4,5-trimethoxyphenyl)tetrahydrofuran] | 48% |
| CCCOc1c(OCCCSc2nc[nH]n2)cc([C@@H]2CC[C@@H](c3cc(OC)c(OC)c(OC)c3)O2)cc1S(=O)(=O)CC(C)=O (relative stereo) [trans-2-[3-(2-Oxopropylsulfonyl)-4-n-propoxy-5-{3-(1H-1,2,4-triazolyl-3-thio)n-propoxy}phenyl]-5-(3,4,5-trimethoxyphenyl)tetrahydrofuran] | 69% |
| CCCOc1c(OCCCSc2ncc[nH]2)cc([C@H]2CC[C@H](c3cc(OC)c(OC)c(OC)c3)O2)cc1S(=O)(=O)CC(C)=O (relative stereo) [trans-2-[3-(2-Oxopropylsulfonyl)-4-n-propoxy-5-{3-(2-imidazolylthio)propoxy}phenyl]-5-(3,4,5-trimethoxyphenyl)tetrahydrofuran] | 45% |
| CCCOc1c(OCCCCN2CCOCC2)cc([C@@H]2CC[C@@H](c3cc(OC)c(OC)c(OC)c3)O2)cc1S(=O)(=O)CC(C)=O (relative stereo) [trans-2-[3-(2-Oxopropylsulfonyl)-4-n-propoxy-5-{4-(1-morpholino)-n-butoxy}phenyl]-5-(3,4,5-trimethoxyphenyl)tetrahydrofuran] | 30% |
| CCCOc1c(OCCCCSc2ncc[nH]2)cc([C@H]2CC[C@H](c3cc(OC)c(OC)c(OC)c3)O2)cc1S(=O)(=O)CC(C)=O (relative stereo) [trans-2-[3-(2-Oxopropylsulfonyl)-4-n-propoxy-5-{4-(2-imidazolylthio)butoxy}phenyl]-5-(3,4,5-trimethoxyphenyl)tetrahydrofuran] | 60% |
| CCCOc1c(OCCCN2CCOCC2)cc([C@@H]2CC[C@@H](c3cc(OC)c(OC)c(OC)c3)O2)cc1S(=O)(=O)CC(C)O (relative stereo) [trans-2-[3-(2-hydroxypropyl-sulfonyl)-4-propoxy-5-{3-(1-morpholino)-n-propoxy}phenyl]-5-(3,4,5-trimethoxyphenyl)tetrahydrofuran] | 18% |
| CCCOc1c(OCCCN2CCOCC2)cc([C@@H]2CC[C@@H](c3cc(OC)c(OC)c(OC)c3)O2)cc1S(=O)(=O)CC(C)=O (relative stereo) [trans-2-[3-(2-oxopropylsulfonyl)-4-n-propoxy-5-{3-(1-morpholino)-n-propoxy}phenyl]-5-(3,4,5-trimethoxyphenyl)tetrahydrofuran] | 31% |
| CCCOc1c(OCCCN2CCOCC2)cc([C@@H]2CC[C@@H](c3cc(OC)c(OC)c(OC)c3)O2)cc1S(=O)(=O)CCC(C)O (relative stereo) [trans-2-[3-(3-Hydroxybutyl)sulfonyl-4-n-propoxy-5-(3-{1-morpholino}-n-propoxy)phenyl]-5-(3,4,5-trimethoxyphenyl)tetrahydrofuran] | 25% |
| CCCS(=O)(=O)c1cc([C@@H]2CC[C@@H](c3cc(OC)c(OC)c(OC)c3)O2)cc(OCCN2CCOCC2)c1OCCCCCCO (relative stereo) [trans-2-[3-n-Propylsulfonyl-4-(6-hydroxy-n-hexyloxy)-5-{2-(1-morpholino)-ethoxy}phenyl]5-(3,4,5-trimethoxyphenyl)tetrahydrofuran] | 55% |

Same assay, conditions: drug concentration of 3 nM, trans configuration, 0.003 µM

| SMILES | % Inhibition of the binding of [3H]N-methylcarbamoyl-PAF to human platelet membranes |
| --- | --- |
| CCCS(=O)(=O)c1cc([C@H]2CC[C@H](c3cc(OC)c(OC)c(OC)c3)O2)cc(OC)c1OCCSc1ccc(O)cc1 (relative stereo) [trans-2-[3-Propylsulfonyl-4-{2-(4-hydroxyphenylthio)-ethoxy}-5-methoxyphenyl]-5-(3,4,5-trimethoxyphenyl) tetrahydrofuran] | 60% and 100% |
